Measured values from patent publication US9561212B2, “Hepatitis C virus inhibitors” (BRISTOL-MYERS SQUIBB COMPANY, priority 2012, dated 2017).

tested on: HCV 1b genotype; experiment: microbe, parasite or virus in culture; assay type: cell-based, Hepatitis C virus; conditions: HCV 1b replicon; read-out: 1b (μM): EC50 (Effective 50% inhibitory concentration) against the HCV 1b genotype
Experimental: An HCV Replicon assay was utilized in the present disclosure, and was prepared, conducted and validated as described in commonly owned PCT/US2006/022197 and in O'Boyle et. al. Antimicrob Agents Chemother. 2005 April; 49(4):1346-53. Assay methods incorporating luciferase reporters have also been used as described (Apath.com).
HCV-neo replicon cells and replicon cells containing resistance substitutions in the NS5A region were used to test the currently described family of compounds.

**Q.** With COC(=O)N[C@@H](C(=O)N1C(c2nc(-c3ccc(-c4ccc(-c5c[nH]c(C6C[C@H]7CC7N6C(=O)[C@H](NC(=O)OC)C6C[C@@H]7[C@H](C6)C7(F)F)n5)cc4)cc3)c[nH]2)C[C@H]2CC21)C1C[C@@H]2[C@H](C1)C2(F)F (single isomer, unassigned; diastereomer 3) [QC2.3] as the compound, how does the EC50 read?
**A.** 1.08 nM

same assay, conditions: HCV 1b replicon; read-out: Range: EC50 ranges against HCV 1b

**Q.** How did the EC50 turn out when COC(=O)NC(C(=O)N1CC(C)CC1c1ncc(-c2ccc(C3CC3c3ccc(-c4cnc(C5CC(C)CN5C(=O)C(NC(=O)OC)C5CCOC6(CC6)C5)[nH]4)cc3)cc2)[nH]1)C1CCOC2(CC2)C1 [Example OL1, dimethyl (((3S,3′S,5S,5′S)-5,5′-(5,5′-((1S,2S)-cyclopropane-1,2-diylbis(4,1-phenylene))bis(1H-imidazole-5,2-diyl))bis(3-methylpyrrolidine-5,1-diyl))bis(2-oxo-1-(4-oxaspiro[2.5]octan-7-yl)ethane-2,1-diyl))dicarbamate] was run?
**A.** 0.00501 to 0.1 nM

**Q.** With “methyl (2-((2S)-2-(7-(2-((2S)-1-(((methoxycarbonyl)amino)(4-oxaspiro[2.5]oct-7-yl)acetyl)-2-pyrrolidinyl)-1H-benzimidazol-5-yl)-4,5-dihydro-1H-naphtho[1,2-d]imidazol-2-yl)-1-pyrrolidinyl)-1-(4-oxaspiro[2.5]oct-7-yl)-2-oxoethyl)carbamate [QC12]” as the compound, how does the EC50 read?
**A.** 0.1 to 0.9 nM

**Q.** With COC(=O)NC(C(=O)N1[C@@H](C)CC[C@H]1c1ncc(-c2ccc(-c3ccc(-c4cnc([C@@H]5CC[C@H](C)N5C(=O)C(NC(=O)OC)C5CCOC6(CCCC6)C5)[nH]4)cc3)cc2)[nH]1)C1CCOC2(CCCC2)C1 (single isomer, unassigned) [Example 3.1] as the compound, how does the EC50 read?
**A.** 0.9 to 700 nM

**Q.** COC(=O)N[C@@H](C(=O)N1C(c2nc(-c3ccc(-c4ccc(-c5c[nH]c(C6C[C@H]7CC7N6C(=O)[C@H](NC(=O)OC)C6C[C@@H]7[C@H](C6)C7(F)F)n5)cc4)cc3)c[nH]2)C[C@H]2CC21)C1C[C@@H]2[C@H](C1)C2(F)F (single isomer, unassigned; diastereomer 3) [QC2.3] was tested. Which EC50 did it give?
**A.** 0.9 to 700 nM

**Q.** COC(=O)NC(C(=O)N1[C@@H]2C[C@@H]2C[C@H]1c1nc(-c2ccc(-c3ccc(-c4c[nH]c([C@@H]5C[C@H]6C[C@H]6N5C(=O)C(NC(=O)OC)C5C[C@@H]6C[C@@H]6C5)n4)cc3)cc2)c[nH]1)C1C[C@@H]2C[C@@H]2C1 (single isomer, unassigned; diastereomer 2) [QC3.2] was tested. Which EC50 did it give?
**A.** 0.00501 to 0.1 nM

**Q.** COC(=O)NC(C(=O)N1[C@@H](C)CC[C@H]1c1nc(-c2ccc(-c3ccc(-c4c[nH]c([C@@H]5CC[C@H](C)N5C(=O)C(NC(=O)OC)=C5CC(C)(C#N)C5)n4)cc3)cc2)c[nH]1)=C1CC(C)(C#N)C1 (stereo partly drawn) [Example 12.2, dimethyl (4,4′-biphenyldiylbis(1H-imidazole-4,2-diyl((2S,5S)-5-methyl-2,1-pyrrolidinediyl)(1-(3-cyano-3-methylcyclobutylidene)-2-oxo-2,1-ethanediyl)))biscarbamate] was tested. Which EC50 did it give?
**A.** 0.9 to 700 nM

**Q.** With COC(=O)NC(C(=O)N1[C@@H](C)CC[C@H]1c1ncc(-c2ccc(-c3ccc(-c4cnc([C@@H]5CC[C@H](C)N5C(=O)C(NC(=O)OC)C5CCOC6(CCC6)C5)[nH]4)cc3)cc2)[nH]1)C1CCOC2(CCC2)C1 (single isomer, unassigned) [Example 2.2] as the compound, how does the EC50 read?
**A.** 0.9 to 700 nM

**Q.** With COC(=O)N[C@@H](C(=O)N1[C@@H]2C[C@@H]2C[C@H]1c1nc(-c2ccc(-c3ccc(-c4c[nH]c([C@@H]5C[C@H]6C[C@H]6N5C(=O)[C@H](NC(=O)OC)[C@H]5C[C@H]6C[C@H]6C5)n4)cc3)cc2)c[nH]1)[C@H]1C[C@H]2C[C@H]2C1 (single isomer, unassigned; diastereomer 3) [QC3.3] as the compound, how does the EC50 read?
**A.** 0.1 to 0.9 nM

same assay, conditions: Hepatitis C virus, HCV 1b replicon; read-out: 1b (μM): EC50 (Effective 50% inhibitory concentration) against the HCV 1b genotype

**Q.** How did the EC50 turn out when COC(=O)N[C@H](C(=O)N1[C@@H](C)CC[C@H]1c1ncc(-c2ccc(-c3ccc(-c4cnc([C@@H]5CC[C@H](C)N5C(=O)[C@@H](NC(=O)OC)[C@H]5C[C@@H](C)O[C@H](C6CC6)C5)[nH]4)cc3)cc2)[nH]1)[C@H]1C[C@@H](C)O[C@H](C2CC2)C1 [Example 9.4, dimethyl ((R,S,S,1S,1′S)-((2S,2′S,5S,5′S)-5,5′-(5,5′-([1,1′-biphenyl]-4,4′-diyl)bis(1H-imidazole-5,2-diyl))bis(2-methylpyrrolidine-5,1-diyl))bis(1-((2S,4S,6R)-2-cyclopropyl-6-methyltetrahydro-2H-pyran-4-yl)-2-oxoethane-2,1-diyl))dicarbamate] was run?
**A.** 0.0093 nM

**Q.** Which EC50 does the source give for COC(=O)NC(C(=O)N1[C@@H](C)CC[C@H]1c1ncc(-c2ccc(-c3ccc(-c4cnc([C@@H]5CC[C@H](C)N5C(=O)C(NC(=O)OC)C5CCOC6(CCC6)C5)[nH]4)cc3)cc2)[nH]1)C1CCOC2(CCC2)C1 (single isomer, unassigned) [Example 2.3] here?
**A.** 0.00488 nM

**Q.** COC(=O)NC(C(=O)N1CCC[C@H]1c1nc(-c2ccc(-c3c[nH]c([C@@H]4CCCN4C(=O)C(NC(=O)OC)C4CCOC5(CC5)C4)n3)cc2)c[nH]1)C1CCOC2(CC2)C1 (stereo partly drawn) [Example QC14, dimethyl (benzene-1,4-diylbis(1H-imidazole-4,2-diyl(2S)pyrrolidine-2,1-diyl(1-(4-oxaspiro[2.5]oct-7-yl)-2-oxoethane-2,1-diyl)))biscarbamate] was tested. Which EC50 did it give?
**A.** 14.5 nM

same assay, conditions: Hepatitis C virus, HCV 1b replicon; read-out: Range: EC50 ranges against HCV 1b

**Q.** Which EC50 does the source give for COC(=O)N[C@H](C(=O)N1[C@@H]2C[C@@H]2C[C@H]1c1nc(-c2ccc(-c3ccc(-c4c[nH]c([C@@H]5C[C@H]6C[C@H]6N5C(=O)[C@@H](NC(=O)OC)C5CCC(=O)CC5)n4)cc3)cc2)c[nH]1)C1CCC(=O)CC1 [Example OL10, dimethyl (4,4′-biphenyldiylbis(1H-imidazole-4,2-diyl(1R,3S,5R)-2-azabicyclo[3.1.0]hexane-3,2-diyl((1S)-2-oxo-1-(4-oxocyclohexyl)-2,1-ethanediyl)))biscarbamate] here?
**A.** 0.1 to 0.9 nM

**Q.** COC(=O)N[C@H](C(=O)N1[C@@H](C)CC[C@H]1c1ncc(-c2ccc(-c3ccc(-c4cnc([C@@H]5CC[C@H](C)N5C(=O)[C@@H](NC(=O)OC)[C@H]5C[C@@H](C)O[C@H](C6CC6)C5)[nH]4)cc3)cc2)[nH]1)[C@H]1C[C@@H](C)O[C@H](C2CC2)C1 [Example 9.4, dimethyl ((R,S,S,1S,1′S)-((2S,2′S,5S,5′S)-5,5′-(5,5′-([1,1′-biphenyl]-4,4′-diyl)bis(1H-imidazole-5,2-diyl))bis(2-methylpyrrolidine-5,1-diyl))bis(1-((2S,4S,6R)-2-cyclopropyl-6-methyltetrahydro-2H-pyran-4-yl)-2-oxoethane-2,1-diyl))dicarbamate] was tested. Which EC50 did it give?
**A.** 0.00501 to 0.1 nM

**Q.** For COC(=O)N[C@H](C(=O)N1C(CO)CCC1c1ncc(-c2ccc(-c3ccc(-c4cnc(C5CCC(CO)N5C(=O)[C@@H](NC(=O)OC)C5C[C@@H](C)O[C@H](C)C5)[nH]4)cc3)cc2)[nH]1)C1C[C@@H](C)O[C@H](C)C1 (single isomer, unassigned) [Example 11.1], which EC50 is on record?
**A.** 0.9 to 700 nM

**Q.** Which EC50 does the source give for COC(=O)N[C@H](C(=O)N1[C@H](c2nc(-c3ccc(-c4ccc(-c5c[nH]c([C@@H]6C[C@@]7(C)C[C@H]7N6C(=O)[C@@H](NC(=O)OC)[C@H]6CCOC7(CC7)C6)n5)cc4)cc3)c[nH]2)C[C@@]2(C)C[C@@H]12)[C@H]1CCOC2(CC2)C1 [QC19, dimethyl (4,4′-biphenyldiylbis(1H-imidazole-4,2-diyl((1R,3S,5R)-5-methyl-2-azabicyclo[3.1.0]hexane-3,2-diyl)(1-(4-oxaspiro[2.5]oct-7-yl)-2-oxo-2,1-ethanediyl)))biscarbamate] here?
**A.** 0.00501 to 0.1 nM

**Q.** For COC(=O)N[C@H](C(=O)N1[C@@H](C)CC[C@H]1c1ncc(-c2ccc(-c3ccc(-c4cnc([C@@H]5CC[C@H](C)N5C(=O)[C@@H](NC(=O)OC)[C@@H]5CCO[C@@H](C6CC6)C5)[nH]4)cc3)cc2)[nH]1)[C@@H]1CCO[C@@H](C2CC2)C1 [Example 6], which EC50 is on record?
**A.** 0.00501 to 0.1 nM

**Q.** How did the EC50 turn out when COC(=O)NC(C(=O)N1C(c2nc(-c3ccc(-c4ccc(-c5c[nH]c([C@@H]6CC[C@H](C)N6C(=O)C(NC(=O)OC)C6CCC7(CC7)OC6)n5)cc4)cc3)c[nH]2)CC[C@@H]1C)C1CCC2(CC2)OC1 (stereo partly drawn) [Example 1.1] was run?
**A.** 0.00501 to 0.1 nM

**Q.** With COC(=O)NC(C(=O)N(C)[C@@H](C)c1nc2cc(C#Cc3ccc4nc([C@H](C)N(C)C(=O)C(NC(=O)OC)C5CCOC6(CC6)C5)[nH]c4c3)ccc2[nH]1)C1CCOC2(CC2)C1 (stereo partly drawn) [OL2, methyl (2-(((1S)-1-(5-((2-((1S)-1-((((methoxycarbonyl)amino)(4-oxaspiro[2.5]oct-7-yl)acetyl)(methyl)amino)ethyl)-1H-benzimidazol-6-yl)ethynyl)-1H-benzimidazol-2-yl)ethyl)(methyl)amino)-1-(4-oxaspiro[2.5]oct-7-yl)-2-oxoethyl)carbamate] as the compound, how does the EC50 read?
**A.** 0.00501 to 0.1 nM

**Q.** How did the EC50 turn out when COC(=O)N[C@H](C(=O)N1CC2(CCCC2)C[C@H]1c1nc(-c2ccc(-c3ccc(-c4c[nH]c([C@@H]5CC6(CCCC6)CN5C(=O)[C@@H](NC(=O)OC)C5C[C@@H](C)O[C@H](C)C5)n4)cc3)cc2)c[nH]1)C1C[C@@H](C)O[C@H](C)C1 (stereo partly drawn) [Example JLR-1.0, dimethyl (4,4′-biphenyldiylbis(1H-imidazole-4,2-diyl(3S)-2-azaspiro[4.4]nonane-3,2-diyl((1S)-1-((2R,6R)-2,6-dimethyltetrahydro-2H-pyran-4-yl)-2-oxo-2,1-ethanediyl)))biscarbamate] was run?
**A.** 0.00501 to 0.1 nM

**Q.** With COC(=O)N[C@H](C(=O)N1[C@@H]2C[C@@H]2C[C@H]1c1nc(-c2ccc(-c3ccc(-c4c[nH]c([C@@H]5C[C@H]6C[C@H]6N5C(=O)[C@@H](NC(=O)OC)C56CC(C(F)(F)F)(C5)C6)n4)cc3)cc2)c[nH]1)C12CC(C(F)(F)F)(C1)C2 [Example OL11, dimethyl (4,4′-biphenyldiylbis(1H-imidazole-4,2-diyl(1R,3S,5R)-2-azabicyclo[3.1.0]hexane-3,2-diyl((1S)-2-oxo-1-(3-(trifluoromethyl)bicyclo[1.1.1]pent-1-yl)-2,1-ethanediyl)))biscarbamate] as the compound, how does the EC50 read?
**A.** 0.00501 to 0.1 nM

**Q.** How did the EC50 turn out when COC(=O)NC(C(=O)N1CCC[C@H]1c1nc(-c2ccc(-c3c[nH]c([C@@H]4CCCN4C(=O)C(NC(=O)OC)C4CCOC5(CC5)C4)n3)cc2)c[nH]1)C1CCOC2(CC2)C1 (stereo partly drawn) [Example QC14, dimethyl (benzene-1,4-diylbis(1H-imidazole-4,2-diyl(2S)pyrrolidine-2,1-diyl(1-(4-oxaspiro[2.5]oct-7-yl)-2-oxoethane-2,1-diyl)))biscarbamate] was run?
**A.** 0.9 to 700 nM

**Q.** Which EC50 does the source give for COC(=O)N[C@H](C(=O)N1[C@@H](C)CC[C@H]1c1nc(-c2ccc(-c3ccc(-c4c[nH]c([C@@H]5CC[C@H](C)N5C(=O)[C@@H](NC(=O)OC)C56CC(C(F)(F)F)(C5)C6)n4)cc3)cc2)c[nH]1)C12CC(C(F)(F)F)(C1)C2 [OL12, dimethyl (4,4′-biphenyldiylbis(1H-imidazole-4,2-diyl((2S,5S)-5-methyl-2,1-pyrrolidinediyl)((1S)-2-oxo-1-(3-(trifluoromethyl)bicyclo [1.1.1]pent-1-yl)-2,1-ethanediyl)))biscarbamate] here?
**A.** 0.1 to 0.9 nM

same assay, conditions: read-out: Range: EC50 ranges against HCV 1b

**Q.** How did the EC50 turn out when COC(=O)NC(C(=O)N1CCOCC1c1ncc(-c2ccc(-c3ccc(-c4cnc(C5COCCN5C(=O)C(NC(=O)OC)C5CCOC6(CC6)C5)[nH]4)cc3)cc2)[nH]1)C1CCOC2(CC2)C1 [OL8, dimethyl (((3R,3′R)-3,3′-(5,5'-([1,1′-biphenyl]-4,4′-diyl)bis(1H-imidazole-5,2-diyl))bis(morpholine-4,3-diyl))bis(2-oxo-1-(4-oxaspiro[2.5]octan-7-yl)ethane-2,1 diyl))dicarbamate] was run?
**A.** 0.1 to 0.9 nM
